Experimental data from ChEMBL document CHEMBL3885861, “Open TG-GATES”.

Species: Rattus norvegicus
Test: Open TG-GATES - Regimen: Single
Type: toxicity, organism-based, Sprague-Dawley
Design: regimen Single, gender Male, age 6 weeks
Conditions: in vivo, po, 50 mg/kg, route gavage, dose level Low; for APTT / Bas / Eos / Fbg / Hb / Ht / Lym / MCH / MCHC / MCV / Mono / Neu / PT / Plat / RBC / Ret / WBC: tissue Blood; for KIDNEY_L / KIDNEY_R / KIDNEY_TOTAL: tissue Kidney; for LIVER: tissue Liver; for A/G / ALP / ALT / AST / BUN / CRE / Ca / Cl / DBIL / GLC / IP / K / LDH / Na / PL / RALB / TBIL / TC / TG / TP / gamma-GTP: tissue Plasma

Work on CC(=O)Oc1cc(C(C)C)c(OCCN(C)C)cc1C [MOXISYLYTE] yielded a TERMINAL_BW (3 h) of 210.1 g, an APTT (3 h) of 21.8 s and a Bas (3 h) of 0%. For the same molecule, the Eos (3 h) was 1.2%, the Fbg (3 h) was 298.6 mg/dL and the Hb (3 h) was 13.1 g/dL. It also gave a Ht (3 h) of 38.6%, a Lym (3 h) of 80% and an MCH (3 h) of 21 pg. It also gave an MCHC (3 h) of 34%, an MCV (3 h) of 61.9 fL and a Mono (3 h) of 2.4%. It also gave a Neu (3 h) of 15.8%, a PT (3 h) of 16.3 s and a Plat (3 h) of 122 x10_4/uL. The RBC (3 h) was 624.4 x10_4/ul, the Ret (3 h) was 8.5% and the WBC (3 h) was 93.6 x10_2/uL. It also gave a KIDNEY_L (3 h) of 0.9 g, a KIDNEY_R (3 h) of 0.9 g and a KIDNEY_TOTAL (3 h) of 1.9 g. For the same molecule, the LIVER (3 h) was 9.4 g, the A/G (3 h) was 1.2 and the ALP (3 h) was 1650.4 IU/L. For the same molecule, the ALT (3 h) was 42.8 IU/L, the AST (3 h) was 80.2 IU/L and the BUN (3 h) was 13.8 mg/dL. For the same molecule, the CRE (3 h) was 0.1 mg/dL, the Ca (3 h) was 10.8 mg/dL and the Cl (3 h) was 107.6 meq/L. The DBIL (3 h) was 0.002 mg/dL, the GLC (3 h) was 180.2 mg/dL and the IP (3 h) was 8.6 mg/dL. It also gave a K (3 h) of 4.5 meq/L, an LDH (3 h) of 254.2 IU/L and a Na (3 h) of 142.4 meq/L. For the same molecule, the PL (3 h) was 134.8 mg/dL, the RALB (3 h) was 3 g/dL and the TBIL (3 h) was 0.018 mg/dL. The TC (3 h) was 72.6 mg/dL, the TG (3 h) was 70.2 mg/dL and the TP (3 h) was 5.4 g/dL. For the same molecule, the gamma-GTP (3 h) was 1 IU/L, the TERMINAL_BW (6 h) was 210.4 g and the APTT (6 h) was 22.1 s. It also gave a Bas (6 h) of 0%, an Eos (6 h) of 0.8% and a Fbg (6 h) of 309.8 mg/dL. It also gave a Hb (6 h) of 13 g/dL, a Ht (6 h) of 37.8% and a Lym (6 h) of 77%. The MCH (6 h) was 21.3 pg, the MCHC (6 h) was 34.5% and the MCV (6 h) was 61.7 fL. The Mono (6 h) was 2.4%, the Neu (6 h) was 18.8% and the PT (6 h) was 15.9 s. It also gave a Plat (6 h) of 116 x10_4/uL, an RBC (6 h) of 612.6 x10_4/ul and a Ret (6 h) of 8.4%. For the same molecule, the WBC (6 h) was 70 x10_2/uL, the KIDNEY_L (6 h) was 0.9 g and the KIDNEY_R (6 h) was 0.9 g. For the same molecule, the KIDNEY_TOTAL (6 h) was 1.9 g, the LIVER (6 h) was 9 g and the A/G (6 h) was 1.3. For the same molecule, the ALP (6 h) was 1379.6 IU/L, the ALT (6 h) was 35.8 IU/L and the AST (6 h) was 70.6 IU/L. For the same molecule, the BUN (6 h) was 11 mg/dL, the CRE (6 h) was 0.1 mg/dL and the Ca (6 h) was 10.6 mg/dL. For the same molecule, the Cl (6 h) was 107.4 meq/L, the DBIL (6 h) was 0.004 mg/dL and the GLC (6 h) was 181.4 mg/dL. For the same molecule, the IP (6 h) was 9.2 mg/dL, the K (6 h) was 4.4 meq/L and the LDH (6 h) was 189 IU/L. It also gave a Na (6 h) of 141.4 meq/L, a PL (6 h) of 146.8 mg/dL and an RALB (6 h) of 3 g/dL. For the same molecule, the TBIL (6 h) was 0.028 mg/dL, the TC (6 h) was 84.2 mg/dL and the TG (6 h) was 74 mg/dL. The TP (6 h) was 5.3 g/dL, the gamma-GTP (6 h) was 1 IU/L and the TERMINAL_BW (9 h) was 208.4 g. For the same molecule, the APTT (9 h) was 20.8 s, the Bas (9 h) was 0% and the Eos (9 h) was 0.4%. The Fbg (9 h) was 309.8 mg/dL, the Hb (9 h) was 13.3 g/dL and the Ht (9 h) was 38.7%. The Lym (9 h) was 83.4%, the MCH (9 h) was 21.2 pg and the MCHC (9 h) was 34.4%. For the same molecule, the MCV (9 h) was 61.8 fL, the Mono (9 h) was 1.4% and the Neu (9 h) was 14.2%. For the same molecule, the PT (9 h) was 15.8 s, the Plat (9 h) was 122.4 x10_4/uL and the RBC (9 h) was 627 x10_4/ul. The Ret (9 h) was 8.1%, the WBC (9 h) was 81 x10_2/uL and the KIDNEY_L (9 h) was 0.9 g. For the same molecule, the KIDNEY_R (9 h) was 0.9 g, the KIDNEY_TOTAL (9 h) was 1.8 g and the LIVER (9 h) was 8.6 g. For the same molecule, the A/G (9 h) was 1.3, the ALP (9 h) was 1432 IU/L and the ALT (9 h) was 40.6 IU/L. It also gave an AST (9 h) of 71.2 IU/L, a BUN (9 h) of 12 mg/dL and a CRE (9 h) of 0.1 mg/dL. It also gave a Ca (9 h) of 10.6 mg/dL, a Cl (9 h) of 108.2 meq/L and a DBIL (9 h) of 0.012 mg/dL. The GLC (9 h) was 182.6 mg/dL, the IP (9 h) was 9.4 mg/dL and the K (9 h) was 4.3 meq/L. The LDH (9 h) was 242.6 IU/L, the Na (9 h) was 143 meq/L and the PL (9 h) was 144.8 mg/dL. The RALB (9 h) was 3.1 g/dL, the TBIL (9 h) was 0.018 mg/dL and the TC (9 h) was 82.6 mg/dL. For the same molecule, the TG (9 h) was 84.2 mg/dL, the TP (9 h) was 5.6 g/dL and the gamma-GTP (9 h) was 1.2 IU/L. The TERMINAL_BW (24 h) was 221.4 g, the APTT (24 h) was 19.7 s and the Bas (24 h) was 0%. It also gave an Eos (24 h) of 1%, a Fbg (24 h) of 309 mg/dL and a Hb (24 h) of 13.2 g/dL. It also gave a Ht (24 h) of 38.3%, a Lym (24 h) of 79.4% and an MCH (24 h) of 21.2 pg. It also gave an MCHC (24 h) of 34.5%, an MCV (24 h) of 61.5 fL and a Mono (24 h) of 2.2%. For the same molecule, the Neu (24 h) was 16.8%, the PT (24 h) was 15.8 s and the Plat (24 h) was 122.9 x10_4/uL. For the same molecule, the RBC (24 h) was 622.4 x10_4/ul, the Ret (24 h) was 8.5% and the WBC (24 h) was 94.4 x10_2/uL. For the same molecule, the KIDNEY_L (24 h) was 0.9 g, the KIDNEY_R (24 h) was 0.9 g and the KIDNEY_TOTAL (24 h) was 1.9 g. For the same molecule, the LIVER (24 h) was 10.7 g, the A/G (24 h) was 1.2 and the ALP (24 h) was 1498.2 IU/L. The ALT (24 h) was 52.4 IU/L, the AST (24 h) was 89.6 IU/L and the BUN (24 h) was 18.4 mg/dL. The CRE (24 h) was 0.1 mg/dL, the Ca (24 h) was 11.1 mg/dL and the Cl (24 h) was 107 meq/L. It also gave a DBIL (24 h) of 0 mg/dL, a GLC (24 h) of 181.8 mg/dL and an IP (24 h) of 7.5 mg/dL. It also gave a K (24 h) of 4.4 meq/L, an LDH (24 h) of 271 IU/L and a Na (24 h) of 142 meq/L. It also gave a PL (24 h) of 163.4 mg/dL, an RALB (24 h) of 3.1 g/dL and a TBIL (24 h) of 0.002 mg/dL. The TC (24 h) was 84.8 mg/dL, the TG (24 h) was 117 mg/dL and the TP (24 h) was 5.8 g/dL. For the same molecule, the gamma-GTP (24 h) was 1.2 IU/L.
